According to patent US5310665A (Gist-brocades, N.V., priority 1990, dated 1994):

Tests used:
[1] = target: T1, Actinoplanes missouriensis glucose isomerase variant H290N (Actinoplanes missouriensis, UniProt P12851, H290N); test: Steady-state kinetics of glucose isomerase mutant; type: biochemical; details: 60° C., 10 mM Mg2+, pH 7.5
T1 construct: made in house; host or cells: E. coli K514
Protocol: (§1) Alternatively, the D-fructose produced during the isomerization reaction can be determined enzymatically using sorbitol dehydrogenase and NADH.
(§2) As a measure of specificity the quotient is Vmax /Km is sometimes used (Wells et al., ibid). […] These temperatures are chosen for practical reasons.
(§3) Activities were measured on purified enzyme. The coupled sorbitol dehydrogenase assay was used for xylose, the cysteine-carbazole or discontinuous sorbitol dehydrogenase method was used for glucose.

[2] = target: T2, Actinoplanes missouriensis glucose isomerase variant M88SH290N (M88S/H290N) (Actinoplanes missouriensis, UniProt P12851, H290N/M88S); test: Steady-state kinetics of glucose isomerase mutant; type: biochemical; details: 60° C., 10 mM Mg2+, pH 7.5
T2 construct: made in house; host or cells: E. coli K514
Protocol: as §1, §2, §3

[3] = target: T3, Actinoplanes missouriensis glucose isomerase, wild type, SEQ ID NO: 1 (Actinoplanes missouriensis, UniProt P12851); test: Steady-state kinetics of glucose isomerase (coupled sorbitol dehydrogenase assay for xylose; cysteine-carbazole or sorbitol dehydrogenase method for glucose); type: biochemical; details: 60° C., 10 mM Mg2+, pH 7.5
T3 construct: made in house; host or cells: E. coli K514

[4] = system: naturally occurring glucose isomerases (various microorganisms); details: range over microorganisms; cited from earlier work

T2 sequence (P12851 2-394 M88S/H290N limits assumed): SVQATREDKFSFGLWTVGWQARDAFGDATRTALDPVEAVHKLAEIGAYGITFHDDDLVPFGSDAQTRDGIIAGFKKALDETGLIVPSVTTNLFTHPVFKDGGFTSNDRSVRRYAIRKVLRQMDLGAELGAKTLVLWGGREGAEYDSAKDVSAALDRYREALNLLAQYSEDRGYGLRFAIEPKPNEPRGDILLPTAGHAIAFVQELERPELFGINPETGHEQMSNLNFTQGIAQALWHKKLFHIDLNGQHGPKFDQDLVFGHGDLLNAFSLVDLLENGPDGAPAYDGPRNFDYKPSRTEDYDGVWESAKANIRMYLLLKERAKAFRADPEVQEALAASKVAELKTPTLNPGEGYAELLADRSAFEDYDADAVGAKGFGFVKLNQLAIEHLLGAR
T3 sequence (P12851 2-394 limits assumed): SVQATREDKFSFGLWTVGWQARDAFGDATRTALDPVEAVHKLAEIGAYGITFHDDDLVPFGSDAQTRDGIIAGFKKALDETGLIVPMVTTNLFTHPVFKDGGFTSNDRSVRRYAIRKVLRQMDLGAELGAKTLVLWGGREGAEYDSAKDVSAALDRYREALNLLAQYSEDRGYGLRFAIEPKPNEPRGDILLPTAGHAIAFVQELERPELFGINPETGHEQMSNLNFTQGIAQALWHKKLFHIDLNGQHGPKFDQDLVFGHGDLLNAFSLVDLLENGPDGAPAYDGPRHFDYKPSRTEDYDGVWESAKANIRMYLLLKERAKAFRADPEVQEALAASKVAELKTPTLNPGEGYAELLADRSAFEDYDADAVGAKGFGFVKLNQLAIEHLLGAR
T1 sequence (P12851 2-394 H290N limits assumed): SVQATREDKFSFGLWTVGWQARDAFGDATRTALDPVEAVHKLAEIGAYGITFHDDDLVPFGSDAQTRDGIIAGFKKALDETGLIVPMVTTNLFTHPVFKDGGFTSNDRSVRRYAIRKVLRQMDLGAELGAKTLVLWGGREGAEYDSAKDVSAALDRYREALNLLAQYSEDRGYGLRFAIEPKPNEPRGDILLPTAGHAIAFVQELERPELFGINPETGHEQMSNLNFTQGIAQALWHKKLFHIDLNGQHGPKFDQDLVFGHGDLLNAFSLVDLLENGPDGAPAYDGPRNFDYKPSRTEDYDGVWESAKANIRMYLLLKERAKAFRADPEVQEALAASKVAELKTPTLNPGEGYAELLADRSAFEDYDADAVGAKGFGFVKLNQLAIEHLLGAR

| SMILES | Vmax gl [1] [µmol/min/mg] | Vmax gl [2] [µmol/min/mg] | Vmax gl [3] [µmol/min/mg] | Km [4] [mM] |
| --- | --- | --- | --- | --- |
| O=C[C@H](O)[C@@H](O)[C@H](O)[C@H](O)CO [glucose] | 41.800 | 49.770 | 34.800 |  |
| O=C[C@H](O)[C@@H](O)[C@H](O)CO [xylose] |  |  |  | 5 to 93 |
